Earlier results as cited in patent publication US20120238596A1, “FORMULATIONS COMPRISING PALONOSETRON” (DR. REDDY'S LABORATORIES, INC., priority 2008, published 2012).

Biological target: T1, serotonin subtype 3 (5-HT3) receptor (Homo sapiens, UniProt P46098)
T1 sequence (P46098 24-478): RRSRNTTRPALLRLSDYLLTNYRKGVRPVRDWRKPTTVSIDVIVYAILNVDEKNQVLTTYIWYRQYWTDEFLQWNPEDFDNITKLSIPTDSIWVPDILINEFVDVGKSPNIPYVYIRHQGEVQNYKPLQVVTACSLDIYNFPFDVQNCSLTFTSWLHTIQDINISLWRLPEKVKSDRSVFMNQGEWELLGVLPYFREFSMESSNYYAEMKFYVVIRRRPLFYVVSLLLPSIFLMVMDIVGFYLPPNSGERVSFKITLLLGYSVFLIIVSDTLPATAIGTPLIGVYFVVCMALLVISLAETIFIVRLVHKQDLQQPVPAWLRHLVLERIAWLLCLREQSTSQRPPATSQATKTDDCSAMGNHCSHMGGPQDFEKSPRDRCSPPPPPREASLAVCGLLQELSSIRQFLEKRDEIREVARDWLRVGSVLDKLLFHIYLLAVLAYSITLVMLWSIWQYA

Cl.O=C1c2cccc3c2[C@H](CCC3)CN1[C@@H]1CN2CCC1CC2 [Palonosetron hydrochloride, (3a5)-2-[(S)-1-Azabicyclo [2.2.2]oct-3-yl]-2,3,3a,4,5,6-hexahydro-1-oxo-1H-benz [de]isoquinoline hydrochloride]
binding affinity for 5-HT3 receptor: strong binding affinity
